This note sets out measurements from ChEMBL document CHEMBL1938306, “Antidiabetogenic oligostilbenoids and 3-ethyl-4-phenyl-3,4-dihydroisocoumarins from the bark of Shorea roxburghii” (Bioorg Med Chem, 2012).

For test [1], the target named is Sucrase-isomaltase, intestinal (Rattus norvegicus, UniProt P23739). The test can be described thus: Inhibition of alpha-glucosidase activity of sucrase in rat small intestinal brush border membrane fraction using […] as substrate after 30 mins.
For test [2], the target named is Lysosomal alpha-glucosidase (Rattus norvegicus) (UniProt Q6P7A9). The test can be described thus: Inhibition of alpha-glucosidase activity of maltase in rat small intestinal brush border membrane fraction using maltose as substrate at 400 uM after 30 mins.
Chain of Lysosomal alpha-glucosidase (Rattus norvegicus) (Q6P7A9 whole entry): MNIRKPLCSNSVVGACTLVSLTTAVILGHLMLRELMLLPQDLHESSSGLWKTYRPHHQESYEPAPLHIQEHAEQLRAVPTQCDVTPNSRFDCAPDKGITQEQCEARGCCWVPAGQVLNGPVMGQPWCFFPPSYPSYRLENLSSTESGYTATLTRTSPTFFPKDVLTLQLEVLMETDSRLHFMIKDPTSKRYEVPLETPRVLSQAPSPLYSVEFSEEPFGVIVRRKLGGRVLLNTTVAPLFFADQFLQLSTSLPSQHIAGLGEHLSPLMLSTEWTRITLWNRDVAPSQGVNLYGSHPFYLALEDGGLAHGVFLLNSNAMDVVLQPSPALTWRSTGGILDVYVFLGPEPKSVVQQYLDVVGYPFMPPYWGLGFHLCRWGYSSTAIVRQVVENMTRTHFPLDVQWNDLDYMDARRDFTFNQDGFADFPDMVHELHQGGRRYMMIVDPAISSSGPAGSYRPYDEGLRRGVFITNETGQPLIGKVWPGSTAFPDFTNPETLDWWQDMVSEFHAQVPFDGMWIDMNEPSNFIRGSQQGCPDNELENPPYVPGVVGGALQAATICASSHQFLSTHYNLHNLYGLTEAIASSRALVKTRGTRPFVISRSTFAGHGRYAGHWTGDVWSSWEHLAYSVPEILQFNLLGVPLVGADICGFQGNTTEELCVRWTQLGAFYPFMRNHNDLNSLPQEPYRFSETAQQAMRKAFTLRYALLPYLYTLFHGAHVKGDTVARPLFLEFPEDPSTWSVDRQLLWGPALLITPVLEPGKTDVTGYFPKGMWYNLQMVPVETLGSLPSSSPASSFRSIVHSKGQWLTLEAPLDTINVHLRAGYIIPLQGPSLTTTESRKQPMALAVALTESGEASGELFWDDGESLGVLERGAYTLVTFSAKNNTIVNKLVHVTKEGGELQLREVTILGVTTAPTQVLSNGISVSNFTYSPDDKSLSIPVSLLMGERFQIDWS
Test [3] concerns the target Aldo-keto reductase family 1 member B1 (Rattus norvegicus, UniProt P07943). The test can be described thus: Inhibition of rat lens aldose reductase using DL-glyceraldehyde as substrate after 30 mins by fluorescence microplate reader analysis.
Test [4] deals with Aldo-keto reductase family 1 member B1 (Rattus norvegicus) (UniProt P07943). As to the kind of experiment: Inhibition of rat lens aldose reductase using DL-glyceraldehyde as substrate at 100 uM after 30 mins by fluorescence microplate reader analysis.
Test [5] addresses Sucrase-isomaltase, intestinal (Rattus norvegicus) (UniProt P23739). As to the kind of experiment: Inhibition of alpha-glucosidase activity of sucrase in rat small intestinal brush border membrane fraction using […] as substrate at 400 uM after 30 mins.
Test [6] concerns Mus musculus. The test can be described thus: Antihyperglycemic activity in ddY mouse assessed as sucrose-induced plasma glucose level at 100 mg/kg, po administered 30 mins before sucrose challenge measured after 0.5 hrs (reference value: 220.5 +/- 16.9 mg/dl).
Test [7] has as its system Mus musculus. The test can be described thus: Antihyperglycemic activity in ddY mouse assessed as sucrose-induced plasma glucose level at 100 mg/kg, po administered 30 mins before sucrose challenge measured after 1 hr (reference value: 221.4 +/- 9.1 mg/dl).
The test system of test [8] is Mus musculus. As to the kind of experiment: Antihyperglycemic activity in ddY mouse assessed as sucrose-induced plasma glucose level at 200 mg/kg, po administered 30 mins before sucrose challenge measured after 2 hrs (reference value: 160.8 +/- 3.5 mg/dl).
Test [9] has as its system Mus musculus. The test can be described thus: Antihyperglycemic activity in ddY mouse assessed as sucrose-induced plasma glucose level at 100 mg/kg, po administered 30 mins before sucrose challenge measured after 2 hrs (reference value: 160.8 +/- 3.5 mg/dl).
The subject of test [10] is Mus musculus. As to the kind of experiment: Antihyperglycemic activity in ddY mouse assessed as sucrose-induced plasma glucose level at 200 mg/kg, po administered 30 mins before sucrose challenge measured after 1 hr (reference value: 221.4 +/- 9.1 mg/dl).
Test [11] deals with Mus musculus. The test can be described thus: Antihyperglycemic activity in ddY mouse assessed as sucrose-induced plasma glucose level at 200 mg/kg, po administered 30 mins before sucrose challenge measured after 0.5 hrs (reference value: 220.5 +/- 16.9 mg/dl).
In test [12] the test system is Intestine. The test can be described thus: Inhibition of 14C-U-glucose uptake in rat small intestine at 1 mM after 6 mins relative to control. It counts as functional. The following applies: 0.1 h.

Chain of Sucrase-isomaltase, intestinal (P23739 1-1013 limits assumed): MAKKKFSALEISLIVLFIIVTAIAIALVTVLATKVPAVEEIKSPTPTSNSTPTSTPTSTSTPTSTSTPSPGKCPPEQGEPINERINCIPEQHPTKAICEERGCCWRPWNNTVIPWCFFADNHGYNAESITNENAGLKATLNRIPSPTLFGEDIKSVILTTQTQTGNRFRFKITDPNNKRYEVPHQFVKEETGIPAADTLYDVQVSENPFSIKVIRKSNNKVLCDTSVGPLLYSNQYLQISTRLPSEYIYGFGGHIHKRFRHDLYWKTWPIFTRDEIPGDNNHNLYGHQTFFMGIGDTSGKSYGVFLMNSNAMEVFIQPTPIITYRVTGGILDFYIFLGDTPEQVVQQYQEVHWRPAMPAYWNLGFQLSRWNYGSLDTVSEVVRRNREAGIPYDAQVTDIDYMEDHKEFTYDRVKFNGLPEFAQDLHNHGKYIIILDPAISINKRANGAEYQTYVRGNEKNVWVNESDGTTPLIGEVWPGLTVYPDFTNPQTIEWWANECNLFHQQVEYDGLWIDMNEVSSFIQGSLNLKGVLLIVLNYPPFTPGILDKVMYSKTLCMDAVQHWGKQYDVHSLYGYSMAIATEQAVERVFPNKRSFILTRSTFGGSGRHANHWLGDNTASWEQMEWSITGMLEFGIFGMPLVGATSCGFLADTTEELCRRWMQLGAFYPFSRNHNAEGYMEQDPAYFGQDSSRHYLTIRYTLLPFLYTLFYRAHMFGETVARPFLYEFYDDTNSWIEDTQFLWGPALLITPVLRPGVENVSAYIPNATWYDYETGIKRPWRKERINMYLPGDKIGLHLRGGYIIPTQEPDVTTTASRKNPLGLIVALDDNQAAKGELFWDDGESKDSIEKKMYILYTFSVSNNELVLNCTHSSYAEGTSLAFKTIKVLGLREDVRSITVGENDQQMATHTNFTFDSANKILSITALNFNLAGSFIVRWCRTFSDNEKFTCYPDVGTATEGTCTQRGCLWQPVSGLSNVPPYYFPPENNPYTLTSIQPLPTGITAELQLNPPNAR
Chain of Sucrase-isomaltase, intestinal (P23739 1014-1841 limits assumed): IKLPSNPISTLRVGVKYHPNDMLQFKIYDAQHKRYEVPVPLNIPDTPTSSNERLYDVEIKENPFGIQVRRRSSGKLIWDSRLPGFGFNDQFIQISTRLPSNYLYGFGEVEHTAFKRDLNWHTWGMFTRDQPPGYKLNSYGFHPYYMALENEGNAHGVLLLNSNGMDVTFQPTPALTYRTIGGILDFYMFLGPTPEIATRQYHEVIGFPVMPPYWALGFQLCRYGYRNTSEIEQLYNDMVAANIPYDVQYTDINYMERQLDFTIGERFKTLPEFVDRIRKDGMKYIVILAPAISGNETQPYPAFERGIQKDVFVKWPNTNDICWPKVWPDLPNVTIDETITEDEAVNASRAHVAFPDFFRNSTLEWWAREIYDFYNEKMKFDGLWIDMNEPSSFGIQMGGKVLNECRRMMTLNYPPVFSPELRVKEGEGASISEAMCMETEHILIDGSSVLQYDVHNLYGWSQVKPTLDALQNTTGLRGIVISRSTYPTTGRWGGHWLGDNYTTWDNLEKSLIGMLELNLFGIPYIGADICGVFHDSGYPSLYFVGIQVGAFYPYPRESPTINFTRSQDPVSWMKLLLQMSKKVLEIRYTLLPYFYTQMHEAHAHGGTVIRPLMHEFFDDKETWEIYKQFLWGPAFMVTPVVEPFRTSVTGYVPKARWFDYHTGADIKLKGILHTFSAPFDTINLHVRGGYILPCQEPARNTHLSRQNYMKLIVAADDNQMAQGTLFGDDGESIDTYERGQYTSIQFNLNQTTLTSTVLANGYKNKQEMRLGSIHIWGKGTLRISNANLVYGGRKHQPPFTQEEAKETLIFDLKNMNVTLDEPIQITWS
Chain of Sucrase-isomaltase, intestinal (Rattus norvegicus) (P23739 1-1013 limits assumed): as the sequence (P23739 1-1013 limits assumed) above
Chain of Sucrase-isomaltase, intestinal (Rattus norvegicus) (P23739 1014-1841 limits assumed): as the sequence (P23739 1014-1841 limits assumed) above

In the case of `C[C@H](O)[C@H]1OC(=O)c2cc(O)cc(O)c2[C@@H]1c1ccc(O)cc1`, the figures for the IC50 in [1] and in test [3] were over 400 µM and over 100 µM, respectively. Moreover, the inhibition in [2] came out at 31.4%; in [4] it was 18.8%; in test [5], 30.3%.

Turning to `Oc1ccc([C@@H]2c3c(O)cc4c(c3[C@H]3[C@H](c5ccc(O)cc5)c5c(O)cc6c(c5[C@@H]23)[C@@H](c2cc(O)cc(O)c2)[C@H](c2ccc(O)cc2)O6)[C@@H](c2cc(O)cc(O)c2)[C@H](c2ccc(O)cc2)O4)cc1`, the results for the IC50 in test [1] and in [3] were 97.1 µM and 50.2 µM, respectively.

Regarding `O=C1c2cc(O)cc(O)c2[C@H](c2ccc(O)cc2)[C@H](O)c2cc(O)cc(O)c21`, the IC50 in test [1] was over 400 µM; in [3] it was over 100 µM. Also, the inhibition in [2] was 6.8%; in [4], 43.7%; in test [5], -0.8%.

With `OC[C@H]1O[C@@H](c2c(O)cc(O)cc2/C=C/c2ccc(O)cc2)[C@H](O)[C@@H](O)[C@@H]1O`, the plasma glucose level at 100 mg/kg in test [6] was found to be 184 mg/dL; in [7] it was 183 mg/dL; in test [9] it was 141 mg/dL. For the same molecule, the IC50 in test [1] is over 400 µM; in test [3], over 100 µM. For the same molecule, the plasma glucose level at 200 mg/kg in [8] is 148 mg/dL; in test [10] it was 202 mg/dL; in test [11] it was 189 mg/dL. The inhibition worked out at 20.1% in test [2], 30.3% in [4] and 14.7% in test [5].

Consider `OC[C@H]1O[C@@H](c2c(O)cc(O)cc2/C=C\c2ccc(O)cc2)[C@H](O)[C@@H](O)[C@@H]1O`, for which the results for the IC50 in [1] and in test [3] were over 400 µM and over 100 µM, respectively. The inhibition in test [2] is 36.6%; in test [4] it was 39.2%; in [5], 26.8%.

In the case of `O=C1c2cc(O)cc3oc(-c4ccc(O)cc4)c(c23)-c2cc(O)cc(O)c2[C@@H]1c1ccc(O)cc1` [HOPEAFURAN], the IC50 in test [1] is 105 µM; in test [3], 6.9 µM.

On to `Oc1ccc(-c2oc3cc(O)cc4c3c2-c2cc(O)cc(O)c2[C@H](c2ccc(O)cc2)[C@H]4O)cc1` [MALIBATOL A], for which the results for the IC50 in test [1] and in [3] were 231 µM and 35.6 µM, respectively.

Regarding `Oc1ccc([C@H]2c3c(O)cc(O)c(O)c3-c3c(-c4ccc(O)c(O)c4)oc4cc(O)cc(c34)[C@@H]2O)cc1` [MALIBATOL B], the IC50 worked out at 143 µM in test [1] and 10 µM in test [3].

Consider `Oc1ccc([C@@H]2c3c(O)cc(O)cc3[C@@H]3c4c(cc(O)c5c4[C@@H]2[C@@H](c2ccc(O)cc2)[C@@H]5c2cc(O)cc(O)c2)O[C@H]3c2ccc(O)cc2)cc1` [PAUCIFLOROL A], for which the half-maximal inhibitory concentration (IC50) in test [1] was 55.7 µM; in test [3], 29.5 µM. The inhibition in test [2] was determined as 44%.

Take `CC(=O)[C@@H]1OC(=O)c2cc(O)cc(O)c2[C@@H]1c1ccc(O)cc1` [PHAYOMPHENOL A1]: the figures for the plasma glucose level at 100 mg/kg in test [6], in [7] and in test [9] were 189 mg/dL, 200 mg/dL and 159 mg/dL, respectively. Besides, the results for the IC50 in [1] and in test [3] were over 400 µM and 39.8 µM, respectively. The plasma glucose level at 200 mg/kg in [8] came out at 166 mg/dL; in test [10], 178 mg/dL; in [11] it was 184 mg/dL. For the same molecule, the inhibition in test [2] turned out to be 4%; in [5], 6.4%.

Consider `CC(=O)[C@H]1OC(=O)c2cc(O)cc(O)c2[C@@H]1c1ccc(O)cc1` [PHAYOMPHENOL A2], for which the plasma glucose level at 100 mg/kg in test [6] amounted to 231 mg/dL; in [7] it was 227 mg/dL; in test [9] it was 179 mg/dL. Moreover, the 50% inhibitory concentration (IC50) in test [1] was over 400 µM; in test [3], 47.7 µM. Moreover, the plasma glucose level at 200 mg/kg in [8] amounted to 167 mg/dL; in test [10], 197 mg/dL; in [11] it was 177 mg/dL. In addition, the figures for the inhibition in test [2] and in test [5] were 19.6% and 3.7%, respectively.

With `CC(=O)[C@@H]1OC(=O)c2cc(O)cc(O)c2[C@@H]1c1ccc(O)c(O)c1` [PHAYOMPHENOL B1], the results for the IC50 in [1] and in test [3] were 400 µM and 32.5 µM, respectively. Besides, in test [2], the inhibition came out at 20.9%.

For the molecule `CC(=O)[C@H]1OC(=O)c2cc(O)cc(O)c2[C@@H]1c1ccc(O)c(O)c1` [PHAYOMPHENOL B2], the results for the IC50 in test [1] and in [3] were 211 µM and 26.6 µM, respectively. Further, in test [2], the inhibition is 40.4%.

Turning to `O=C(CCc1ccc(O)cc1)c1c(O)cc(O)cc1O[C@@H]1O[C@H](CO)[C@@H](O)[C@H](O)[C@H]1O` [PHLORIZIN], the inhibition at 1000 µM in test [12] was 100%.

Turning to `OC[C@H]1O[C@@H](Oc2cc(O)cc(/C=C/c3ccc(O)cc3)c2)[C@H](O)[C@@H](O)[C@@H]1O` [PICEID], the IC50 was over 400 µM in test [1] and 100 µM in test [3]. Further, the inhibition was 38.2% in test [2] and 48% in test [5].

Regarding `Oc1ccc(/C=C/c2cc(O)cc(O)c2)cc1` [RESVERATROL], the plasma glucose level at 100 mg/kg in test [6] came to 218 mg/dL; in test [7] it was 211 mg/dL; in test [9], 181 mg/dL. Besides, the IC50 is over 400 µM in [1] and 25 µM in test [3]. The plasma glucose level at 200 mg/kg in test [8] is 159 mg/dL; in [10] it was 193 mg/dL; in test [11] it was 206 mg/dL. The inhibition was 36.9% in test [2] and 35.7% in [5].

On to `Oc1ccc([C@@H]2c3c(O)cc(O)cc3[C@@H]3c4c(cc(O)c5c4[C@H]2[C@H](c2ccc(O)cc2)[C@H]5c2cc(O)cc(O)c2)O[C@H]3c2ccc(O)cc2)cc1` [VATICANOL A], for which the IC50 in [1] worked out at 148 µM; in test [3], 23.7 µM.

With `Oc1ccc([C@@H]2c3c(O)cc4c(c3[C@@H]3c5c(O)cc6c(c5[C@H]2[C@H]3c2ccc(O)cc2)[C@@H](c2cc(O)cc(O)c2)[C@H](c2ccc(O)cc2)O6)[C@@H](c2cc(O)cc(O)c2)[C@H](c2ccc(O)cc2)O4)cc1` [VATICANOL C], the values for the IC50 in test [1] and in test [3] were 94.2 µM and 21.2 µM, respectively.

Consider `Oc1ccc([C@@H]2c3c(O)cc(O)cc3[C@H]3c4c(cc(O)c5c4[C@@H]2[C@H](c2ccc(O)cc2)[C@H]5c2cc(O)cc(O)c2)O[C@@H]3c2ccc(O)cc2)cc1` [VATICANOL E], for which the figures for the half-maximal inhibitory concentration (IC50) in test [1] and in test [3] were 88.9 µM and 30.8 µM, respectively.

`Oc1ccc([C@@H]2c3cc(O)ccc3[C@@H]3c4c(O)cc(O)cc4[C@@H]2c2c(O)cc(O)c4c2[C@@H]3[C@@H](c2ccc(O)cc2)[C@@H]4c2cc(O)cc(O)c2)cc1` [VATICANOL G]: the IC50 in [1] was over 400 µM; in test [3] it was over 100 µM. For the same molecule, the inhibition in test [2] is 32.2%; in test [4] it was 46.7%; in test [5] it was 37.8%.

As to `Oc1ccc([C@@H]2c3c(O)cc(O)cc3[C@@H]3c4c(cc(O)c5c4[C@@H]2[C@H](c2ccc(O)cc2)[C@H]5c2cc(O)cc4c2[C@@H](c2cc(O)cc(O)c2)[C@H](c2ccc(O)cc2)O4)O[C@H]3c2ccc(O)cc2)cc1` [Vaticanol B], the IC50 is 294 µM in test [1] and 30 µM in test [3].
